Test results: patent US20140087944A1, “COMPOSITIONS AND METHODS FOR ENHANCING PLANT GROWTH” (NOVOZYMES BIOAG A/S, priority 2012, published 2014)

Key:
Type in all cases: in vivo
[1] = system: corn seedling; assay: Corn seedling root growth after seed treatment, Petri plate germination, WinRhizo root scanner (Examples 1 and 2)
Method: An experiment was performed to determine the effect of gluconolactone on corn seedling root growth parameters. Unsterilized corn seeds (Peterson Hybrid corn 98L90GTCBLL pre-treated with fungicide Acceleron) were treated with water (control) and gluconolactone solutions (1 and 10 mg/L distilled water). In a clear plastic bag (25 cm×25 cm), 100 gram seeds were treated with 500 μl water (for control). Gluconolactone treatments of 1 and 10 mg/L included 250 μl water+250 μl gluconolactone solution with vigorous shaking. Four hours after treatment, 10 seeds were plated in 150 mm×15 mm polystyrene Petri plates (Fisherband) on 5⅜″ germination paper circle (Anchor Paper Co., Saint Paul, Mn) and moistened with 12 ml distilled water. Four Petri plates were prepared per treatment as 4 replicates. Petri plates were then placed in the dark in under-counter cabinets in the lab at 24° C. for 7 days. After 7 days, seedlings were removed from the cabinets, exposed to light, and their main roots severed and measured for various root parameters with WinRhizo root scanner (Regent Instruments Inc., WinRhizo Pro 2007). For all statistical analysis, student t-test was applied using JMPv.9 statistical software.
An experiment was designed to evaluate if any gluconolactone concentration between 1.0-10 mg/L and below 1.0 mg/L has an optimum effect on influencing seedling root growth. Example 2 was conducted according to the protocols of Example 1. Accordingly, gluconolactone concentrations of 5.0 mg/L, 1.0 mg/L, and 0.5 mg/L, were evaluated.

[2] = system: corn seedlings; assay: Growth of seedlings in water-agar medium in test tube (Example 3), corn
Method: (§1) The effect of gluconolactone on growth of seedlings of various crops was examined. Corn, green lentil and yellow pea seeds (100 g) were treated with 1.0 mg/L gluconolactone and control seeds were treated with distilled water according to the protocols of Example 1. After treatments, seeds were allowed to dry overnight. One day after treatment, seeds were placed in 25×150 mm glass test tubes containing 40 ml of 5% water-agar solidified medium. Seeds were placed on the surface of medium in each test tube. Test tubes were then placed in a rack and kept in the lab under diffuse light. As the treated seeds were not sterilized, sterilization of the agar medium was not maintained and the test tubes were kept uncapped. Because of the agar medium being without any sugar, the occurrence of contamination was minimal for up to 10 days. The number of seeds per treatment was 10.

[3] = system: green lentil seedlings; assay: Growth of seedlings in water-agar medium in test tube (Example 3), lentil
Method: as §1

[4] = system: yellow pea seedlings; assay: Growth of seedlings in water-agar medium in test tube (Example 3), pea
Method: as §1

[5] = system: soybean; assay: Soybean pod yield in greenhouse, gluconolactone with isoflavonoids (Example 8); settings: for yield increase over Cue®: gluconolactone added with Cue®; for soybean pod yield, Fresh Weight: gluconolactone 1 mg/L, pods harvested after 6 weeks
Method: Cue® is a genistein/daidzein isoflavonoid product available from Novozymes Biologicals, Inc. Cue® is used as a soybean seed treatment and the effect of gluconolactone in combination with flavonoids was evaluated to see if soybean production could be enhanced. Gluconolactone was prepared with Cue®. Daidzein, another isoflavonoid, was similarly prepared with gluconolactone with daidzein having the same isoflavonoid concentration as Cue®.
About 100 g soybean seeds were treated with 1 mg/L treatment solutions of gluconolactone and 200 μl of CruiserMaxx® Beans (Syngenta) fungicide+170 μl distilled water+30 μl Cue® or daidzein. For control, a total of 200 μl water was used with 200 μl CruiserMaxx® Bean fungicide. One day after seed treatments, seeds were planted in greenhouse in 1 gallon plastic pots containing soilless mix Fafard 3B. There were 3 plants/pot and 4 pots/treatment. Soybean plants were occasionally fertilized with 20-15-20 NPK fertilizer. Pods were harvested after 6 weeks. Average pod fresh weights were analyzed by student-t test using JUMP statistical software.

[6] = system: soybean; assay: Performance of rhizobial inoculants for soybean seeds, pod yield (Example 10)
Method: The effect of gluconolactone on the performance of rhizobial inoculants for soybean seeds was evaluated to see if soybean production could be enhanced. 1 mg/L of gluconolactone was added to rhizobial inoculants products Cell-Tech® and Optimize-400® (both from Novozymes Biologicals Inc.). Seed treatments were performed following the instruction cited in the product labels. The total liquid dose going onto soybean seeds was maintained the same when gluconolactone was added. Control seeds were treated with water. About 100 g seed was treated in a clear plastic bag (25 cm×25 cm) with treatment solutions. Seeds were planted 2 hours after treatment in […] containing Fafard soilless mix in greenhouse. 3 plants were allowed to grow per pot and there were 5 pots per treatment. Pods were harvested 6 weeks after planting.

[7] = system: lentil seedlings; assay: Stress tolerance of lentil seedlings at 8° C., root growth parameters (Example 11); settings: seven days after plating, 1.0 mg/L gluconolactone, 100 mg/L glutathione, 100 mg/L PADG
Method: The effect of antioxidants on stress tolerance by lentil seedlings at 8° C. was evaluated. Lentil seeds treated with the treatment solutions at 5 ml/kg of seed. […] Treated seeds were plated in large Petri plates on germination paper moistened with deionized water. Plates were incubated at 8° C. in a walk in cold room. Seven days after plating, seedling roots were measured for various growth parameters.

[8] = Example 1, GL 1 mg/L seed treatment, main root, 7 days
[9] = Example 1, GL 1 mg/L seed treatment, main root, 7 days, listed as GL
[10] = Example 1, GL 10 mg/L seed treatment, main root, 7 days
[11] = Example 1, GL 10 mg/L seed treatment, main root, 7 days, listed as GL
[12] = Example 2, GL 0.5 mg/L seed treatment
[13] = Example 2, GL 1.0 mg/L seed treatment
[14] = Example 2, GL 5.0 mg/L seed treatment
[15] = gluconolactone 1 mg/L seed treatment, harvested 10 days after planting
[16] = gluconolactone 1 mg/L, non-significantly

O=C1O[C@H](CO)[C@@H](O)[C@H](O)[C@H]1O [Gluconolactone, gluconolactone]
Diameter [1, 8]: 0.940a mm
Surface area [1, 8]: significantly higher than control
Volume [1, 8]: significantly higher than control
Length ([1]; Example 1, GL 1 mg/L seed treatment, main root, 7 days in dark at 24° C.): significantly higher than control
Length ([1]; Example 1, GL 1 mg/L seed treatment, main root, 7 days in dark at 24° C., listed as GL): 7.108a cm
Surface area [1, 9]: 2.128a cm^2
Volume [1, 9]: 0.051a cm^3
Diameter [1, 10]: did not show any difference
Length [1, 10]: did not show any difference
Surface area [1, 10]: did not show any difference
Volume [1, 10]: did not show any difference
Length [1, 11]: 6.282ab cm
Surface area [1, 11]: 1.748ab cm^2
Volume [1, 11]: 0.039ab cm^3
Diam [1, 12]: 1.190a mm
Length [1, 12]: 6.778ab cm
Root Volume [1, 12]: 0.076a cm3
Diam [1, 13]: 1.116b mm
Length [1, 13]: optimum dose
Root Volume [1, 13]: 0.070ab cm3
Length ([1]; Example 2, GL 1.0 mg/L seed treatment, listed as GL): 7.048a cm
Diam [1, 14]: 1.149ab mm
Length [1, 14]: least effective
Root Volume [1, 14]: 0.063b cm3
Length ([1]; Example 2, GL 5.0 mg/L seed treatment, listed as GL): 6.054b cm
Seedling dry weight [2, 15]: 0.606a g
average plant dry biomass higher (than control) [2, 16]: 6.3%
Seedling dry weight [3, 15]: 0.083a* g
average plant dry biomass higher (than control) ([3]; gluconolactone 1 mg/L, significantly): 38.3%
Seedling dry weight [4, 15]: 0.483a g
average plant dry biomass higher (than control) [4, 16]: 5.0%
yield increase over Cue® ([5]; 1st trial): 6%
yield increase over Cue® ([5]; 2nd trial): 9.7%
yield increase over Cue® ([5]; 3rd trial): 0.6%
yield increase (over daidzein alone) ([5]; gluconolactone added with daidzein, in 2 out of 3 trials): approximately 2.5%
% increase (dry pod yield) ([6]; 1 mg/L gluconolactone added to Cell-Tech, over Cell-Tech alone): 3.36%
% increase (dry pod yield) ([6]; 1 mg/L gluconolactone added to Optimize-400, over Optimize-400 alone): 4.84%
No. of lateral roots [7]: 2.935 ab
Seedling Root Length [7]: 2.895 a cm
Surface area [7]: 0.9457 a cm^2
Volume [7]: 0.02474 a cm^3
No. of lateral roots ([7]; listed as gluconolactone): significantly increased
Seedling Root Length ([7]; listed as gluconolactone): significantly increased
Surface area ([7]; listed as gluconolactone): significantly increased
Volume ([7]; listed as gluconolactone): significantly increased

O=c1c(-c2ccc(O)cc2)coc2cc(O)ccc12 [Daidzein, reference compound]
soybean pod yield, Fresh Weight ([5]; 1st trial): 36.782 g
soybean pod yield, Fresh Weight ([5]; 2nd trial): 36.4 g
soybean pod yield, Fresh Weight ([5]; 3rd trial): 32.482 g
